Test results published in patent publication US10894784B2, “Heteroarylbenzimidazole compounds” (BAYER PHARMA AKTIENGESELLSCHAFT, priority 2015, dated 2021).
Where “and” joins values, the source holds several entries; their conditions need not be identical. Equal entries are not always repeated.

Target: TBK1 (Homo sapiens (Human), UniProt Q9UHD2)
Assay: TBK1 low ATP kinase assay (in vitro assay 1)
Format: biochemical
Details: in vitro assay 1, read-out: TBK1 low ATP kinase assay IC50

Chain of TBK1 (Q9UHD2 whole entry): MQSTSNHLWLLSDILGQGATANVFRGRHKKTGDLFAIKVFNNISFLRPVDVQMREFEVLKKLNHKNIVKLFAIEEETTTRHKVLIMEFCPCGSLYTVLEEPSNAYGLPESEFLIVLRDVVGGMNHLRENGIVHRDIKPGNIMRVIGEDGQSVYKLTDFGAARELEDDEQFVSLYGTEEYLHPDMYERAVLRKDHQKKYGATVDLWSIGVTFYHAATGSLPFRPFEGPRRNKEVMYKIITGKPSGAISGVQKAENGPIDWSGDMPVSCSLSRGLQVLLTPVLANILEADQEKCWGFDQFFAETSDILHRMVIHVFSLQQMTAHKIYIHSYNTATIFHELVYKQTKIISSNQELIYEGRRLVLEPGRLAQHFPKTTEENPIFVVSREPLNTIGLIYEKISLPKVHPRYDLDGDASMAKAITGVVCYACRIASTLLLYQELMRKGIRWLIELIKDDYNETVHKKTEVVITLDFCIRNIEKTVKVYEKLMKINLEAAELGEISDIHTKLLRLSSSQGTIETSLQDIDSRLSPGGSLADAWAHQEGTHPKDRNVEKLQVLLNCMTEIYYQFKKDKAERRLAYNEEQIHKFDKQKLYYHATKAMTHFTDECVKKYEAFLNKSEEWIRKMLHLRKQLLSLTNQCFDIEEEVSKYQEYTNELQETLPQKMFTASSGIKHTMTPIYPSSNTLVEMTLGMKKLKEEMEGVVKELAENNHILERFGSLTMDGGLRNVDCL

| Structure (SMILES) | IC50 |
| --- | --- |
| CSc1ncc(-c2ccc3nc(Nc4cc(CN5CCN(C(=O)CC(F)(F)F)CC5)ccn4)[nH]c3c2)cn1 [Example 45.05.01, 3,3,3-trifluoro-1-(4-{[2-({6-[2-(methylsulfanyl)pyrimidin-5-yl]-1H-benzimidazol-2-yl}amino)pyridin-4-yl]methyl}piperazin-1-yl)propan-1-one] | 1430 nM |
| CC(c1ccnc(Nc2nc3ccc(-c4cc(OCC(C)(F)F)ncn4)cc3[nH]2)c1)N1CCN(C(=O)C2CC2)CC1 (single isomer, unassigned) [Example 165.03, cyclopropyl(4-{(1R or 1S)-1-[2-({6-[6-(2,2-difluoropropoxy)pyrimidin-4-yl]-1H-benzimidazol-2-yl}amino)pyridin-4-yl]ethyl}piperazin-1-yl)methanone] | 1.79 nM |
| COc1cnccc1-c1ccc2nc(Nc3cc(CN4CCN(C(=O)C5CC5)CC4)ccn3)[nH]c2c1 [Example 04.03, cyclopropyl{4-[(2-{[6-(3-methoxypyridin-4-yl)-1H-benzimidazol-2-yl]amino}pyridin-4-yl)methyl]piperazin-1-yl}methanone] | 19.3 nM |
| Cc1cc(-c2ccc3nc(Nc4cc(C(C)N5CCN(C(=O)OC(C)(C)C)CC5)ccn4)[nH]c3c2F)ncn1 (single isomer, unassigned) [Example 172.01, tert-butyl 4-[(1R or 1S)-1-(2-{[7-fluoro-6-(6-methylpyrimidin-4-yl)-1H-benzimidazol-2-yl]amino}pyridin-4-yl)ethyl]piperazine-1-carboxylate] | 39.8 nM |
| O=C(C1CCC1)N1CCN(Cc2ccnc(Nc3nc4ccc(-c5nc(C6CC6)no5)cc4[nH]3)c2)CC1 [Example 17.06, cyclobutyl{4-[(2-{[6-(3-cyclopropyl-1,2,4-oxadiazol-5-yl)-1H-benzimidazol-2-yl]amino}pyridin-4-yl)methyl]piperazin-1-yl}methanone] | 61.3 nM |
| COc1ccncc1-c1ccc2nc(Nc3cc(CN4CCN(C(=O)C5CCC5)CC4)ccn3)[nH]c2c1 [Example 14.01, cyclobutyl{4-[(2-{[6-(4-methoxypyridin-3-yl)-1H-benzimidazol-2-yl]amino}pyridin-4-yl)methyl]piperazin-1-yl}methanone] | 195 nM |
| O=C(CC(F)(F)F)N1CCN(Cc2ccnc(Nc3nc4ccc(-c5cnn(CC(F)(F)F)c5)cc4[nH]3)c2)CC1 [Example 58.01.02, 3,3,3-trifluoro-1-(4-{[2-({6-[1-(2,2,2-trifluoroethyl)-1H-pyrazol-4-yl]-1H-benzimidazol-2-yl}amino)pyridin-4-yl]methyl}piperazin-1-yl)propan-1-one] | 9.81 nM |
| Cc1cc(-c2ccc3nc(Nc4cc(CN5CCN(C(=O)C6CC6)CC5)ccn4)[nH]c3c2)cc(C#N)n1 [Example 136.03, 4-{2-[(4-{[4-(cyclopropylcarbonyl)piperazin-1-yl]methyl}pyridin-2-yl)amino]-1H-benzimidazol-6-yl}-6-methylpyridine-2-carbonitrile] | 21 nM |
| CCS(=O)(=O)N1CCN(Cc2ccnc(Nc3nc4ccc(-c5ncncc5OC)cc4[nH]3)c2)CC1 [Example 35.01.08, N-(4-{[4-(ethylsulfonyl)piperazin-1-yl]methyl}pyridin-2-yl)-6-(5-methoxypyrimidin-4-yl)-1H-benzimidazol-2-amine] | 24.3 nM |
| O=C(CC(F)(F)F)N1CCN(Cc2ccnc(Nc3nc4ccc(-c5ncnc(NCC6CCC6)c5F)cc4[nH]3)c2)CC1 [Example 191.02, 1-[4-({2-[(6-{6-[(cyclobutylmethyl)amino]-5-fluoropyrimidin-4-yl}-1H-benzimidazol-2-yl)amino]pyridin-4-yl}methyl)piperazin-1-yl]-3,3,3-trifluoropropan-1-one] | 95.3 nM |
| CC(c1ccnc(Nc2nc3ccc(-c4cc(OCC(F)(F)C(F)(F)F)ncn4)cc3[nH]2)c1)N1CCN(C(=O)CC(F)(F)F)CC1 (single isomer, unassigned) [Example 166.02, 3,3,3-trifluoro-1-(4-{(1R or 1S)-1-[2-({6-[6-(2,2,3,3,3-pentafluoropropoxy)pyrimidin-4-yl]-1H-benzimidazol-2-yl}amino)pyridin-4-yl]ethyl}piperazin-1-yl)propan-1-one] | 20.5 nM |
| CN(CC1CC1)c1cc(-c2ccc3nc(Nc4cc(CN5CCN(C(=O)CC(F)(F)F)CC5)ccn4)[nH]c3c2)ncn1 [Example 141.02, 1-[4-({2-[(6-{6-[(cyclopropylmethyl)(methyl)amino]pyrimidin-4-yl}-1H-benzimidazol-2-yl)amino]pyridin-4-yl}methyl)piperazin-1-yl]-3,3,3-trifluoropropan-1-one] | 19 nM |
| Cc1ncc(-c2ccc3nc(Nc4cc(CN5CCN(C(=O)C6CC6)CC5)ccn4)[nH]c3c2)cn1 [Example 45.03.02, cyclopropyl{4-[(2-{[6-(2-methylpyrimidin-5-yl)-1H-benzimidazol-2-yl]amino}pyridin-4-yl)methyl]piperazin-1-yl}methanone] | 1330 nM |
| O=C(C1CCC1)N1CCN(Cc2ccnc(Nc3nc4ccc(-c5ccnc(C(F)(F)F)n5)cc4[nH]3)c2)CC1 [Example 27.02, cyclobutyl(4-{[2-({6-[2-(trifluoromethyl)pyrimidin-4-yl]-1H-benzimidazol-2-yl}amino)pyridin-4-yl]methyl}piperazin-1-yl)methanone] | 220 nM |
| Cc1cccc(-c2ccc3nc(Nc4cc(CN5CCN(C(=O)OC(C)(C)C)CC5)ccn4)[nH]c3c2)n1 [Example 12.01, tert-butyl 4-[(2-{[6-(6-methylpyridin-2-yl)-1H-benzimidazol-2-yl]amino}pyridin-4-yl)methyl]piperazine-1-carboxylate] | > 20000 nM and 10000 nM and 8120 nM |
| CC(c1ccnc(Nc2nc3ccc(-c4cc(OCC(F)(F)C(F)(F)F)ncn4)cc3[nH]2)c1)N1CCN(C(=O)OC(C)(C)C)CC1 (single isomer, unassigned) [Example 166.01, tert-butyl 4-{(1R or 1S)-1-[2-({6-[6-(2,2,3,3,3-pentafluoropropoxy)pyrimidin-4-yl]-1H-benzimidazol-2-yl}amino)pyridin-4-yl]ethyl}piperazine-1-carboxylate] | 300 nM |
| Clc1ccccc1N1CCN(Cc2ccnc(Nc3nc4ccc(-c5noc(C6CC6)n5)cc4[nH]3)c2)CC1 [Example 22.01, N-(4-{[4-(2-chlorophenyl)piperazin-1-yl]methyl}pyridin-2-yl)-6-(5-cyclopropyl-1,2,4-oxadiazol-3-yl)-1H-benzimidazol-2-amine] | 481 nM |
| CC(c1ccnc(Nc2nc3ccc(-c4cnn(CC5CC5)c4)c(F)c3[nH]2)c1)N1CCN(C(=O)OC(C)(C)C)CC1 (single isomer, unassigned) [Example 121.01, tert-butyl 4-{(1R or 1S)-1-[2-({6-[1-(cyclopropylmethyl)-1H-pyrazol-4-yl]-7-fluoro-1H-benzimidazol-2-yl}amino)pyridin-4-yl]ethyl}piperazine-1-carboxylate] | 11 nM |
| Cc1cc(-c2ccc3nc(Nc4cc(C(C)N5CCN(C(=O)C6(C(F)(F)F)CC6)CC5)ccn4)[nH]c3c2F)ncn1 (single isomer, unassigned) [Example 172.04, {4-[(1R or 1S)-1-(2-{[7-fluoro-6-(6-methylpyrimidin-4-yl)-1H-benzimidazol-2-yl]amino}pyridin-4-yl)ethyl]piperazin-1-yl}[1-(trifluoromethyl)cyclopropyl]methanone] | 20.9 nM |
